Holding throughout (test): cell-based
Experiment [1] concerns the target hNav1.5 (Homo sapiens, UniProt Q14524). To be noted: IonWorks Quattro, read-out: IWQ Use Nav1.5.
Experiment [2] addresses hNav1.7 (Homo sapiens, UniProt Q15858). Type of experiment: cell-based.
In experiment [3] the target is hNav1.3 (Homo sapiens, UniProt Q9NY46). To be noted: IonWorks Quattro, read-out: IWQ Use Nav1.3.
Setting [4] is: IonWorks Quattro, use-dependent, […], read-out: IWQ Use Nav1.7.
[5] abbreviates: IonWorks Quattro, Use, read-out: IWQ Use Nav1.7.

Where two headings read alike, the source gives them in different places. Positions of bridges follow the written chain, without caps; N, C: chain ends. Non-standard residues stand in square brackets, D forms with d. Residues, ends and D or L forms follow the SMILES beside them. 1Nal = N[C@@H](Cc1cccc2ccccc12)C(=O)O

Chain of hNav1.7 (Q15858 whole entry, looked up): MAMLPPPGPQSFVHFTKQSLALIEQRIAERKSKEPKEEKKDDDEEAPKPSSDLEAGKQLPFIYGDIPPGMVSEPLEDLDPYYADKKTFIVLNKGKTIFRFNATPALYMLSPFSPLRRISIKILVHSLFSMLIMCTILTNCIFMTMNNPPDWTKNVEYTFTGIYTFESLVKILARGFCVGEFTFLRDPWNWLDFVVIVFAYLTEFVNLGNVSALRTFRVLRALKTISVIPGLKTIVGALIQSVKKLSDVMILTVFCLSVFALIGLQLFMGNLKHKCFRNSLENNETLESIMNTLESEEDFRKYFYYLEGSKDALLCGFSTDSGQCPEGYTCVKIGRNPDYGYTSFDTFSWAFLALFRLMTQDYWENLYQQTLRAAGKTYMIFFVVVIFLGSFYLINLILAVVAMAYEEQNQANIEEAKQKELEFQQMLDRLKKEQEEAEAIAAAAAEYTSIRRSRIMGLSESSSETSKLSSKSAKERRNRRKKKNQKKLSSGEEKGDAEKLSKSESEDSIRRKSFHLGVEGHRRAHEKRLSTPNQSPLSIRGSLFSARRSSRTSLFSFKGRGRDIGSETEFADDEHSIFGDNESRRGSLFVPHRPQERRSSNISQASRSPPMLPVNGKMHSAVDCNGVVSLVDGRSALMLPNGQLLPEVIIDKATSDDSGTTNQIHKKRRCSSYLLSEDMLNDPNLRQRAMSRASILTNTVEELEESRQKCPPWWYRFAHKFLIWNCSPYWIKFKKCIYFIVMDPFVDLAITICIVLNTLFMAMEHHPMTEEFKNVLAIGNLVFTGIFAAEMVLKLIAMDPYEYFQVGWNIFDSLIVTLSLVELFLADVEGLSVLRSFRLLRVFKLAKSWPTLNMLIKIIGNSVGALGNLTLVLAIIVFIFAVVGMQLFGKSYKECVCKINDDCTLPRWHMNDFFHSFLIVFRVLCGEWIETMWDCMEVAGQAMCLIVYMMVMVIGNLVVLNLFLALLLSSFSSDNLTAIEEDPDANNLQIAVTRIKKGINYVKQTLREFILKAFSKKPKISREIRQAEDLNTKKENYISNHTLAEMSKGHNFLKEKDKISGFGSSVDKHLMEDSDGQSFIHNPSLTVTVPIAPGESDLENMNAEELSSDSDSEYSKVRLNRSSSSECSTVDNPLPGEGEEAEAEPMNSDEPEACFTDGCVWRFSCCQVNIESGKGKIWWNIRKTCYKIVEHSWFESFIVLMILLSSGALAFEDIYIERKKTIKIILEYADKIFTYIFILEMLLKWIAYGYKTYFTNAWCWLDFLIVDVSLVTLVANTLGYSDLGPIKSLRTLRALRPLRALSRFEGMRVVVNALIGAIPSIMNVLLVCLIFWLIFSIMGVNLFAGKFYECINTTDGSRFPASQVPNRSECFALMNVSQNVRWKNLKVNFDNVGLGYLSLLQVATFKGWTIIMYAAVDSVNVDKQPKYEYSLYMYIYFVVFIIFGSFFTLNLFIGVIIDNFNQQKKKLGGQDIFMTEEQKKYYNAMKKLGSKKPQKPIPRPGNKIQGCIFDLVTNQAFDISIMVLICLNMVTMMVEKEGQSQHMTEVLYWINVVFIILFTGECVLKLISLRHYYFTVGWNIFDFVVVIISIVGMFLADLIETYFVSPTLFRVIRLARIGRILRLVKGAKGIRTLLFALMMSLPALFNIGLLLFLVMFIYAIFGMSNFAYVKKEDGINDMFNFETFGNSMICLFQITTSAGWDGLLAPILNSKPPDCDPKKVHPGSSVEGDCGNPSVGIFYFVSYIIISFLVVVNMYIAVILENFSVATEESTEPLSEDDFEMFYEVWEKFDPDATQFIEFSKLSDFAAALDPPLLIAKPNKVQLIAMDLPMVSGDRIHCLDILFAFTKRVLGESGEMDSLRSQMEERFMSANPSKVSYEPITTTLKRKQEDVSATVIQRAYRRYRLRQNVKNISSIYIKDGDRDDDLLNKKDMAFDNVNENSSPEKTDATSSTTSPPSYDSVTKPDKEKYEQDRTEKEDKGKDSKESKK
Chain of hNav1.5 (Q14524 whole entry, looked up): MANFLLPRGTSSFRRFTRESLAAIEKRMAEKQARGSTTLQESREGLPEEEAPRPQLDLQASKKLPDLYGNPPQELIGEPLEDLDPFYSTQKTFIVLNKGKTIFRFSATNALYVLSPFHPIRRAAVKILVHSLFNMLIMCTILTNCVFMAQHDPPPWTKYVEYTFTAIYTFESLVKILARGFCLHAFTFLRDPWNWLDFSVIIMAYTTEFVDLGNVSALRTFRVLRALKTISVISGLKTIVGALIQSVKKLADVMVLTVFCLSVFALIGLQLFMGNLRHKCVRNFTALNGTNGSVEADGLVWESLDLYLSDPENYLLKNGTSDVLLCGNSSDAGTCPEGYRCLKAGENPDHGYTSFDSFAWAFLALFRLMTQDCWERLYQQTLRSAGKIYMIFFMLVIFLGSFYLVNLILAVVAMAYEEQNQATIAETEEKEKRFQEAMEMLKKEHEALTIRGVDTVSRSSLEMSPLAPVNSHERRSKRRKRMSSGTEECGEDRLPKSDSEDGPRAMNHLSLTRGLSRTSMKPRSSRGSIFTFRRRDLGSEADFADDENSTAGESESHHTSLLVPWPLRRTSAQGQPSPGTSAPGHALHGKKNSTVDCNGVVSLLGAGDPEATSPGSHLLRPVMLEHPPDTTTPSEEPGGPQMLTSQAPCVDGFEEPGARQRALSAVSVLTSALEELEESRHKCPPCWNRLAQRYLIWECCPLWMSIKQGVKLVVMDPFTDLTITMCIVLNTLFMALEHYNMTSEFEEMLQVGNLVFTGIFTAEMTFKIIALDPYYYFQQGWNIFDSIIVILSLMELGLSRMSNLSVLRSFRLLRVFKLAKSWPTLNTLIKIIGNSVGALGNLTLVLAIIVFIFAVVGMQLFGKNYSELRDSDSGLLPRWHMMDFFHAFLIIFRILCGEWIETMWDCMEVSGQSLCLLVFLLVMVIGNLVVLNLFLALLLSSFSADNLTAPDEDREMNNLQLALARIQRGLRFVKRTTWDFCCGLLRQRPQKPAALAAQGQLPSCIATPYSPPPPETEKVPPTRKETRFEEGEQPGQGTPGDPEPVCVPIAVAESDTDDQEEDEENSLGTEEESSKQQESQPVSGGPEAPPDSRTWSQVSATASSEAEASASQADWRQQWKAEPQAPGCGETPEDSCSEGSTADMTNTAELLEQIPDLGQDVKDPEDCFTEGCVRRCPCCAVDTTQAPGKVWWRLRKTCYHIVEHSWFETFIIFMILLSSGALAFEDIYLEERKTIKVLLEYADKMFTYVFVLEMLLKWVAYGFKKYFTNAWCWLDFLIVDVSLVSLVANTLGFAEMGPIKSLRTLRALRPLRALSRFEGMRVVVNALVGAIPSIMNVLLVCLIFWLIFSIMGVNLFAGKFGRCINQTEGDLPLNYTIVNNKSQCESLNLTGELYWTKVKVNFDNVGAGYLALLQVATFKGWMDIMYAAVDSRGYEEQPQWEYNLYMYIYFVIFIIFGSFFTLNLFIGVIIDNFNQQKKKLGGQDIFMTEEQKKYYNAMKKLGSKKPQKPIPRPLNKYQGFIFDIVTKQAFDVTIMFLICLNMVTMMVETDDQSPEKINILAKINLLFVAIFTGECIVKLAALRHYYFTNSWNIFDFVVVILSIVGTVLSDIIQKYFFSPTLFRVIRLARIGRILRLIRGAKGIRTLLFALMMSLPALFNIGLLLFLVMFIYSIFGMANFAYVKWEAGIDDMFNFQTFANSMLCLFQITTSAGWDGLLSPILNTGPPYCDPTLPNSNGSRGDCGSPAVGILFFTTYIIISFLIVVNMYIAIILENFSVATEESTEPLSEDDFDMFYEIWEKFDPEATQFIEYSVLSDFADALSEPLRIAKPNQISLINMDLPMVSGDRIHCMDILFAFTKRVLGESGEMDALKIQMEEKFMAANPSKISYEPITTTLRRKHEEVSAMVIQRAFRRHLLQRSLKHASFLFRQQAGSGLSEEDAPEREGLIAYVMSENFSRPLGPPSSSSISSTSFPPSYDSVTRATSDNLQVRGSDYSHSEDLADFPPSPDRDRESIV

In the case of `CC[C@H](C)[C@@H]1NC(=O)[C@@H]2CSSC[C@@H]3NC(=O)[C@H](C(C)C)NC(=O)[C@H](CC(C)C)NC(=O)[C@H](CC(N)=O)NC(=O)[C@@H]4CCCN4C(=O)[C@H](CCCNC(=N)N)NC(=O)[C@H](CSSC[C@H](NC(=O)[C@@H](N)CC(=O)O)C(=O)N[C@@H](CC(C)C)C(=O)NCC(=O)N[C@@H](Cc4ccccc4)C(=O)N[C@@H](CCSC)C(=O)N[C@@H](CCCNC(=N)N)C(=O)N[C@@H](CCCCN)C(=O)N2)NC(=O)[C@H](CSSC[C@@H](C(=O)N[C@@H](CCCCN)C(=O)N[C@@H](Cc2ccc(O)cc2)C(=O)N[C@H](C(=O)N[C@@H](Cc2cccc4ccccc24)C(N)=O)C(C)C)NC(=O)[C@H](Cc2c[nH]c4ccccc24)NC(=O)[C@H](CCCCN)NC(=O)[C@H](Cc2cnc[nH]2)NC(=O)[C@H]([C@@H](C)O)NC(=O)[C@H](CCCNC(=N)N)NC(=O)[C@H](CO)NC3=O)NC(=O)[C@H](CCCCN)NC(=O)[C@H](CC(=O)O)NC(=O)[C@H](CC(N)=O)NC(=O)[C@H](CC(=O)O)NC(=O)[C@@H]2CCCN2C1=O` [compound 80] (H-DCLGFMRKCIPDNDKCCRPNLVCSRTHKWCKYV[1Nal]-NH2; disulfide 2-17, 9-23, 16-30), the IC50 in experiment [1] (use-dependent, […]) was 10200 nM; in experiment [2] (setting [4]), 20 nM; in experiment [3] (use-dependent, […]), 30 nM.

As to `CSCC[C@@H]1NC(=O)[C@H](Cc2ccccc2)NC(=O)CNC(=O)[C@H](CC(C)C)NC(=O)[C@@H](NC(=O)[C@@H](N)CC(=O)O)CSSC[C@@H]2NC(=O)[C@@H]3CSSC[C@@H](C(=O)N[C@@H](CCCCN)C(=O)N[C@@H](Cc4ccc(O)cc4)C(=O)N[C@H](C(=O)N[C@@H](Cc4ccccc4)C(N)=O)C(C)C)NC(=O)[C@H](Cc4c[nH]c5ccccc45)NC(=O)[C@H](CCCCN)NC(=O)[C@H](Cc4c[nH]cn4)NC(=O)[C@H]([C@@H](C)O)NC(=O)[C@H](CCCNC(=N)N)NC(=O)[C@H](CO)NC(=O)[C@H](CSSC[C@H](NC(=O)[C@H](CCCCN)NC(=O)[C@H](CCCNC(=N)N)NC1=O)C(=O)N[C@@H](Cc1c[nH]c4ccccc14)C(=O)N1CCC[C@H]1C(=O)N[C@@H](CC(=O)O)C(=O)N[C@@H](CC(N)=O)C(=O)N[C@@H](CC(=O)O)C(=O)N[C@@H](CCCCN)C(=O)N3)NC(=O)[C@H](C(C)C)NC(=O)[C@H](CC(C)C)NC(=O)[C@H](CC(N)=O)NC(=O)[C@@H]1CCCN1C(=O)[C@H](CCCNC(=N)N)NC2=O` [compound 83] (H-DCLGFMRKCWPDNDKCCRPNLVCSRTHKWCKYVF-NH2; disulfide 2-17, 9-23, 16-30), the figures for the IC50 in experiment [1] (Use), in experiment [2] (setting [5]) and in experiment [3] (Use) were 8020 nM, 100 nM and 190 nM, respectively.

As to `CC[C@H](C)[C@@H]1NC(=O)[C@@H]2CSSC[C@@H]3NC(=O)[C@H](C(C)C)NC(=O)[C@H](CC(C)C)NC(=O)[C@H](CC(N)=O)NC(=O)[C@@H]4CCCN4C(=O)[C@H](CCCNC(=N)N)NC(=O)[C@H](CSSC[C@H](NC(=O)[C@@H](N)CC(=O)O)C(=O)N[C@@H](CC(C)C)C(=O)NCC(=O)N[C@@H](Cc4ccccc4)C(=O)N[C@@H](CCSC)C(=O)N[C@@H](CCCNC(=N)N)C(=O)N[C@@H](CCCCN)C(=O)N2)NC(=O)[C@H](CSSC[C@@H](C(=O)N[C@@H](CCCCN)C(=O)N[C@@H](Cc2c[nH]c4ccccc24)C(=O)N[C@H](C(=O)N[C@@H](Cc2ccccc2)C(N)=O)C(C)C)NC(=O)[C@H](Cc2c[nH]c4ccccc24)NC(=O)[C@H](CCCCN)NC(=O)[C@H](Cc2c[nH]cn2)NC(=O)[C@H]([C@@H](C)O)NC(=O)[C@H](CCCNC(=N)N)NC(=O)[C@H](CO)NC3=O)NC(=O)[C@H](CCCCN)NC(=O)[C@H](CC(=O)O)NC(=O)[C@H](CC(N)=O)NC(=O)[C@H](CC(=O)O)NC(=O)[C@@H]2CCCN2C1=O` [compound 85] (H-DCLGFMRKCIPDNDKCCRPNLVCSRTHKWCKWVF-NH2; disulfide 2-17, 9-23, 16-30), the IC50 in experiment [1] (Table 25, use, […]) stood at 6740 nM; in experiment [2] (Table 25, IonWorks Quattro, use, […], read-out: IWQ Use Nav1.7) it was 90 nM; in experiment [3] (Table 25, use, […]) it was 160 nM.

`CC[C@H](C)[C@@H]1NC(=O)[C@@H]2CSSC[C@@H]3NC(=O)[C@H](C(C)C)NC(=O)[C@H](CC(C)C)NC(=O)[C@H](CC(N)=O)NC(=O)[C@@H]4CCCN4C(=O)[C@H](CCCNC(=N)N)NC(=O)[C@H](CSSC[C@H](NC(=O)[C@@H](N)CC(=O)O)C(=O)N[C@@H](CC(C)C)C(=O)NCC(=O)N[C@@H](Cc4ccccc4)C(=O)N[C@@H](CCSC)C(=O)N[C@@H](CCCNC(=N)N)C(=O)N[C@@H](CCCCN)C(=O)N2)NC(=O)[C@H](CSSC[C@@H](C(=O)N[C@@H](CCCCN)C(=O)N[C@@H](Cc2ccc(O)cc2)C(=O)N[C@H](C(=O)N[C@@H](Cc2c[nH]c4ccccc24)C(N)=O)C(C)C)NC(=O)[C@H](Cc2c[nH]c4ccccc24)NC(=O)[C@H](CCCCN)NC(=O)[C@H](Cc2c[nH]cn2)NC(=O)[C@H]([C@@H](C)O)NC(=O)[C@H](CCCNC(=N)N)NC(=O)[C@H](CO)NC3=O)NC(=O)[C@H](CCCCN)NC(=O)[C@H](CC(=O)O)NC(=O)[C@H](CC(N)=O)NC(=O)[C@H](CC(=O)O)NC(=O)[C@@H]2CCCN2C1=O` [compound 86] (H-DCLGFMRKCIPDNDKCCRPNLVCSRTHKWCKYVW-NH2; disulfide 2-17, 9-23, 16-30): the IC50 in experiment [1] (use-dependent, […]) came to 10000 nM; in experiment [2] (setting [4]), 260 nM; in experiment [3] (use-dependent, […]), 180 nM.

In the case of `CC[C@H](C)[C@@H]1NC(=O)[C@@H]2CSSC[C@@H]3NC(=O)[C@H](C(C)C)NC(=O)[C@H](CC(C)C)NC(=O)[C@H](CC(N)=O)NC(=O)[C@@H]4CCCN4C(=O)[C@H](CCCNC(=N)N)NC(=O)[C@H](CSSC[C@H](NC(=O)[C@@H](N)CC(=O)O)C(=O)N[C@@H](CC(C)C)C(=O)NCC(=O)N[C@@H](Cc4ccccc4)C(=O)N[C@@H](CCSC)C(=O)N[C@@H](CCCNC(=N)N)C(=O)N[C@@H](CCCCN)C(=O)N2)NC(=O)[C@H](CSSC[C@@H](C(=O)N[C@@H](CCCCN)C(=O)N[C@@H](Cc2ccc(O)cc2)C(=O)N[C@H](C(=O)N[C@@H](Cc2ccccc2)C(=O)N[C@@H](Cc2c[nH]c4ccccc24)C(N)=O)C(C)C)NC(=O)[C@H](Cc2c[nH]c4ccccc24)NC(=O)[C@H](CCCCN)NC(=O)[C@H](Cc2c[nH]cn2)NC(=O)[C@H]([C@@H](C)O)NC(=O)[C@H](CCCNC(=N)N)NC(=O)[C@H](CO)NC3=O)NC(=O)[C@H](CCCCN)NC(=O)[C@H](CC(=O)O)NC(=O)[C@H](CC(N)=O)NC(=O)[C@H](CC(=O)O)NC(=O)[C@@H]2CCCN2C1=O` [compound 87], the IC50 in experiment [1] (use-dependent, […]) was 7870 nM; in experiment [2] (IonWorks Quattro, use-dependent, […], read-out: IWQ Use Nav1.7 (μm)), 50 nM; in experiment [3] (use-dependent, […]) it was 70 nM.

With `CSCC[C@@H]1NC(=O)[C@H](Cc2ccccc2)NC(=O)CNC(=O)[C@H](CC(C)C)NC(=O)[C@@H](NC(=O)[C@@H](N)CC(=O)O)CSSC[C@@H]2NC(=O)[C@@H]3CSSC[C@@H](C(=O)N[C@@H](CCCCN)C(=O)N[C@@H](Cc4ccc(O)cc4)C(=O)N[C@H](C(=O)N[C@@H](Cc4ccccc4)C(N)=O)C(C)C)NC(=O)[C@H](Cc4c[nH]c5ccccc45)NC(=O)[C@H](CCCCN)NC(=O)[C@H](Cc4cnc[nH]4)NC(=O)[C@H]([C@@H](C)O)NC(=O)[C@H](CCCNC(=N)N)NC(=O)[C@H](CO)NC(=O)[C@H](CSSC[C@H](NC(=O)[C@H](CCCCN)NC(=O)[C@H](CCCNC(=N)N)NC1=O)C(=O)N[C@@H](CC(N)=O)C(=O)N1CCC[C@H]1C(=O)N[C@@H](CC(=O)O)C(=O)N[C@@H](CC(N)=O)C(=O)N[C@@H](CC(=O)O)C(=O)N[C@@H](CCCCN)C(=O)N3)NC(=O)[C@H](C(C)C)NC(=O)[C@H](CC(C)C)NC(=O)[C@H](CC(N)=O)NC(=O)[C@@H]1CCCN1C(=O)[C@H](CCCNC(=N)N)NC2=O` [compound 90] (H-DCLGFMRKCNPDNDKCCRPNLVCSRTHKWCKYVF-NH2; disulfide 2-17, 9-23, 16-30), the figures for the IC50 in experiment [1] (Use), in experiment [2] and in experiment [3] (Use) were 14100 nM, 490 nM and 190 nM, respectively.

`CC[C@H](C)[C@@H]1NC(=O)[C@@H]2CSSC[C@@H]3NC(=O)[C@H](C(C)C)NC(=O)[C@H](CC(C)C)NC(=O)[C@H](CC(N)=O)NC(=O)[C@@H]4CCCN4C(=O)[C@H](CCCNC(=N)N)NC(=O)[C@H](CSSC[C@H](NC(=O)[C@@H](N)CC(=O)O)C(=O)N[C@@H](CC(C)C)C(=O)NCC(=O)N[C@@H](Cc4ccccc4)C(=O)N[C@@H](CCSC)C(=O)N[C@@H](CCCNC(=N)N)C(=O)N[C@@H](CCCCN)C(=O)N2)NC(=O)[C@H](CSSC[C@@H](C(=O)N[C@@H](CCCCN)C(=O)N[C@@H](Cc2ccc(O)cc2)C(=O)N[C@H](C(=O)N[C@@H](Cc2ccccc2)C(N)=O)C(C)C)NC(=O)[C@H](Cc2c[nH]c4ccccc24)NC(=O)[C@H](CCCCN)NC(=O)[C@H](Cc2c[nH]cn2)NC(=O)[C@H]([C@@H](C)O)NC(=O)[C@H](CCCNC(=N)N)NC(=O)[C@H](CO)NC3=O)NC(=O)[C@H](CCCCN)NC(=O)[C@H](CC(=O)O)NC(=O)[C@H](CC(N)=O)NC(=O)[C@H](CO)NC(=O)[C@@H]2CCCN2C1=O` [compound 91] (H-DCLGFMRKCIPSNDKCCRPNLVCSRTHKWCKYVF-NH2; disulfide 2-17, 9-23, 16-30): the IC50 worked out at 9580 nM in experiment [1] (Use), 80 nM in experiment [2] (setting [5]) and 190 nM in experiment [3] (Use).
